In US20240158446A1, “CYCLIC COMPOUND HAVING SELECTIVE INHIBITORY ACTION ON KRAS OVER HRAS AND NRAS” (CHUGAI SEIYAKU KABUSHIKI KAISHA, priority 2021, published 2024):
pKd: −log10 of the molar value. Like-named read-outs stand apart in the source and are kept apart here. *1 amine or outer side, *2 acyl side, *3 side chain or, on linkers, in order; H or OH if unused. Where a SMILES comes first, the peptide text is derived from it. Bridges are numbered along the chain shown (N, C = ends). [ ]: non-standard residue; d: D form. The star is where a group is joined. hPhe(3-Cl-4-CF3) = N[C@@H](CCc1ccc(C(F)(F)F)c(Cl)c1)C(=O)O; X23 = C=CCCN([C@@H](Cc1ccc(C(F)(F)F)cc1)C(=O)[*:2])[*:1]; X45 = O=C([C@H](Cc1ccc(C(F)(F)F)cc1)N(CCCF)[*:1])[*:2]; NPrPhe(4-CF3) = CCCN[C@@H](Cc1ccc(C(F)(F)F)cc1)C(=O)O; NMeGly(cPent) = CN[C@H](C(=O)O)C1CCCC1; Piperidide(4-Me) = CC1CCN(*)CC1; NMeD = CN[C@@H](CC(=O)O)C(=O)O; NMeL = CN[C@@H](CC(C)C)C(=O)O; Morpholide = C1CN(*)CCO1; Ac5c = NC1(C(=O)O)CCCC1; Sar = CNCC(=O)O

Assays:
[1] = target: GDP-bound NRAS wild-type protein (Homo sapiens, UniProt P01111); experiment: Binding to NRAS by surface plasmon resonance (SPR), Single Cycle Kinetics; conditions: for NRAS/KRAS (ratio of KD value for NRAS to KD value for KRAS) / NRAS/KRAS (ratio of KD value with respect to NRAS to KD value with respect to KRAS): SPR, GDP-bound NRAS wild-type protein vs GDP-bound KRAS wild-type protein
Sequence of GDP-bound NRAS wild-type protein (P01111 whole entry): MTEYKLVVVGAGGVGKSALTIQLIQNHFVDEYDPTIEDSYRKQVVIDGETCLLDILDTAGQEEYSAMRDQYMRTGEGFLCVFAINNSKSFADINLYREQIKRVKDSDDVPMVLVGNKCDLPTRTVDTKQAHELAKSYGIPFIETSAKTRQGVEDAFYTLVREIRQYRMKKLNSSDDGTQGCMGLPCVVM

[2] = target: GDP-bound KRAS wild-type protein (Homo sapiens, UniProt P01116); experiment: Binding to KRAS by surface plasmon resonance (SPR), Single Cycle Kinetics; conditions: GDP-bound KRAS wild-type protein, read-out: KRAS KD
Sequence of GDP-bound KRAS wild-type protein (P01116 whole entry): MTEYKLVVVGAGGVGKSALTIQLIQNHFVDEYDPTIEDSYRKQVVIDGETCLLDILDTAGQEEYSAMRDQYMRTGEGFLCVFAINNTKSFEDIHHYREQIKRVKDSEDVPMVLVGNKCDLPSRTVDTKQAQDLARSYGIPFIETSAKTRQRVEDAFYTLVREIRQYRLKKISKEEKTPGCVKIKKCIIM

[3] = target: GDP-bound HRAS wild-type protein (Homo sapiens, UniProt P01112); experiment: Binding to HRAS by surface plasmon resonance (SPR), Single Cycle Kinetics; conditions: for HRAS/KRAS (ratio of KD value for HRAS to KD value for KRAS) / HRAS/KRAS (ratio of KD value with respect to HRAS to KD value with respect to KRAS): SPR, GDP-bound HRAS wild-type protein vs GDP-bound KRAS wild-type protein
Sequence of GDP-bound HRAS wild-type protein (P01112 whole entry): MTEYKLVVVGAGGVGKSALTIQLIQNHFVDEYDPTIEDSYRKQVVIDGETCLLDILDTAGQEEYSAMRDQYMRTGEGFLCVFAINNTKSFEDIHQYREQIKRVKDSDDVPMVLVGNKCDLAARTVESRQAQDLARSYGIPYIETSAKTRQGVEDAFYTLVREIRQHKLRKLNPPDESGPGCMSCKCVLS

[4] = SPR Single Cycle Kinetics, 1:1 binding model

## C=CCCN1C(=O)CN(C)C(=O)CN(C)C(=O)[C@H]([C@@H](C)CC)NC(=O)[C@H](CC(C)C)N(C)C(=O)C[C@@H](C(=O)N2CCOCC2)N(C)C(=O)[C@H](C2CCCC2)N(C)C(=O)C2(CCCC2)NC(=O)[C@@H]2CCCN2C(=O)[C@H](CCc2ccc(C(F)(F)F)c(Cl)c2)NC(=O)CN(C)C(=O)[C@@H]1Cc1ccc(C(F)(F)F)cc1 [PP0129] ([NMeL]I[Sar][Sar][X23][Sar][hPhe(3-Cl-4-CF3)]P[Ac5c][NMeGly(cPent)][NMeD]-Morpholide; lactam N-11)
[1]
  NRAS/KRAS (ratio of KD value for NRAS to KD value for KRAS): B (a compound having 3 or more and less than 10 is denoted as B)
[2]; [4]
  pKd: 9.70
[3]
  HRAS/KRAS (ratio of KD value for HRAS to KD value for KRAS): C (A compound having a KD ratio of 0.1 or more and less than 3 is denoted as C)

## C=CCCCC[C@H]1C(=O)N[C@@H]([C@@H](C)CC)C(=O)N(C)CC(=O)N(C)[C@H]2CCCCN(C2=O)[C@@H](Cc2ccc(C(F)(F)F)cc2)C(=O)N(C)CC(=O)N[C@@H](CCc2cc(F)c(C(F)(F)F)c(F)c2)C(=O)N2C[C@H](OCC)C[C@H]2C(=O)N[C@](C)(CC=C)C(=O)N(C)[C@@H](C2CCCC2)C(=O)N(C)[C@H](C(=O)N2CCOCC2)CC(=O)N1C [PP0877]
[1]
  NRAS/KRAS (ratio of KD value for NRAS to KD value for KRAS): C (A compound having a KD ratio of 0.1 or more and less than 3 is denoted as C)
[2]; SPR, Single Cycle Kinetics
  pKd: 9.68
[3]
  HRAS/KRAS (ratio of KD value for HRAS to KD value for KRAS): B (a compound having 3 or more and less than 10 is denoted as B)

## CCO[C@@H]1C[C@H]2C(=O)NC3(CC(C)(C)C3)C(=O)N(C)[C@@H](C(CC)CC)C(=O)N(C)[C@H](C(=O)N(C)C)CC(=O)N(C)[C@H]3CCC/C=C/c4ccc(cc4)C[C@@H](C(=O)N(C)CC(=O)N[C@@H](CCc4ccc(Cl)c(Cl)c4)C(=O)N2C1)N1CC/C=C\C[C@@H](C1=O)N(C)C(=O)CN(C)C(=O)[C@H]([C@@H](C)CC)NC3=O [PP2580]
[1]; SPR KD ratio NRAS/KRAS, class symbols
  NRAS/KRAS (ratio of KD value with respect to GDP-bound NRAS wild-type protein to KD value with respect to KRAS): AA (a compound having 20 or more is denoted as AA)
[2]; [4]
  pKd: 9.70
[3]; SPR KD ratio HRAS/KRAS, class symbols
  HRAS/KRAS (ratio of KD value with respect to GDP-bound HRAS wild-type protein to KD value with respect to KRAS): A (a compound having 10 or more and less than 20 is denoted as A)

## CCC[C@H]1C(=O)N[C@@H]([C@@H](C)CC)C(=O)N(C2CC2)CC(=O)N(C)[C@H]2C/C=C\CCN(C2=O)[C@@H](Cc2ccc(C(F)(F)F)cc2)C(=O)N(C)CC(=O)N[C@@H](CCc2cc(F)c(C(F)(F)F)c(F)c2)C(=O)N2C[C@H](OCC)C[C@H]2C(=O)NC2(CC(C)(C)C2)C(=O)N(C)[C@@H](C2CCCC2)C(=O)N(C)[C@H](C(=O)N(C)C)CC(=O)N1C [PP2101]
[1]
  NRAS/KRAS (ratio of KD value for NRAS to KD value for KRAS): A (a compound having 10 or more and less than 20 is denoted as A)
[2]; SPR, Single Cycle Kinetics
  pKd: 9.49
[3]
  HRAS/KRAS (ratio of KD value for HRAS to KD value for KRAS): B (a compound having 3 or more and less than 10 is denoted as B)

## CCCN1C(=O)CN(C)C(=O)CN(C)C(=O)[C@H]([C@@H](C)CC)NC(=O)[C@H](CC(C)C)N(C)C(=O)C[C@@H](C(=O)N2CCC(C)CC2)N(C)C(=O)[C@H](C2CCCC2)N(C)C(=O)C2(CCCC2)NC(=O)[C@@H]2CCCN2C(=O)[C@H](CCc2ccc(C(F)(F)F)c(Cl)c2)NC(=O)CN(C)C(=O)[C@@H]1Cc1ccc(C(F)(F)F)cc1 [PP0176] ([NMeL]I[Sar][Sar][NPrPhe(4-CF3)][Sar][hPhe(3-Cl-4-CF3)]P[Ac5c][NMeGly(cPent)][NMeD]-{Piperidide(4-Me)}; lactam N-11)
[1]
  NRAS/KRAS (ratio of KD value for NRAS to KD value for KRAS): B (a compound having 3 or more and less than 10 is denoted as B)
[2]; [4]
  pKd: 9.26
[3]
  HRAS/KRAS (ratio of KD value for HRAS to KD value for KRAS): C (A compound having a KD ratio of 0.1 or more and less than 3 is denoted as C)

## CC[C@H](C)[C@@H]1NC(=O)[C@H](CC(C)C)N(C)C(=O)C[C@@H](C(=O)N2CCOCC2)N(C)C(=O)[C@H](C2CCCC2)N(C)C(=O)C2(CCCC2)NC(=O)[C@@H]2CCCN2C(=O)[C@H](CCc2ccc(C(F)(F)F)c(Cl)c2)NC(=O)CN(C)C(=O)[C@H](Cc2ccc(C(F)(F)F)cc2)N(CCCF)C(=O)CN(C)C(=O)CN(C)C1=O [PP0524] ([NMeL]I[Sar][Sar][X45][Sar][hPhe(3-Cl-4-CF3)]P[Ac5c][NMeGly(cPent)][NMeD]-Morpholide; lactam N-11)
[1]
  NRAS/KRAS (ratio of KD value with respect to NRAS to KD value with respect to KRAS): B (a compound having 3 or more and less than 10 is denoted as B)
[2]; [4]
  pKd: 9.96
[3]
  HRAS/KRAS (ratio of KD value with respect to HRAS to KD value with respect to KRAS): C (A compound having a KD ratio of 0.1 or more and less than 3 is denoted as C)

## C#CC[C@H]1C(=O)N[C@@H]([C@@H](C)CC)C(=O)N(C)CC(=O)N(C)[C@H]2CCCCCN(C2=O)[C@@H](Cc2ccc(C(F)(F)F)cc2)C(=O)N(C)CC(=O)N[C@@H](CCc2cc(F)c(C(F)(F)F)c(F)c2)C(=O)N2C[C@H](OCC)C[C@H]2C(=O)NC2(CCC2)C(=O)N(C)[C@@H](C2CCCC2)C(=O)N(C)[C@H](C(=O)N2CCOCC2)CC(=O)N1C [PP0681]
[1]
  NRAS/KRAS (ratio of KD value with respect to NRAS to KD value with respect to KRAS): B (a compound having 3 or more and less than 10 is denoted as B)
[2]; [4]
  pKd: 9.36
[3]
  HRAS/KRAS (ratio of KD value with respect to HRAS to KD value with respect to KRAS): B (a compound having 3 or more and less than 10 is denoted as B)
